Experiments:
[1] = tested on: HMLER (human breast cancer bulk cell); test: MTT cytotoxicity assay, HMLER; format: cell-based; details: 72 hr, MTT; read-out: IC50 HMLER
[2] = tested on: HMLER-shEcad (human breast cancer stem cell); test: MTT cytotoxicity assay, HMLER-shEcad; format: cell-based; details: 72 hr, MTT; read-out: IC50 HMLER-shEcad
[3] = tested on: MCF-10A (human breast epithelial cell); test: cells; details: read-out: IC50 MCF-10A; 72 hr, MTT
[4] = tested on: U2OS (human bone osteosarcoma); test: MTT cytotoxicity assay, U2OS; format: cell-based; details: 72 hr
[5] = tested on: HEK293T (human embryonic kidney cell); test: MTT cytotoxicity assay, HEK293T; format: cell-based; details: 72 hr, MTT; read-out: IC50 HEK293T
[6] = Tryptophan fluorescent binding assay, POPC vesicles; details: 50 μM peptide, PBS pH 7.4
How it was run: (§1)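 Tryptophan fluorescence was measured with peptide fixed at 50 μM and POPC or 3POPC/1POPG LUVs (100 nm extruded) titrated 0–5000 μM in PBS pH 7.4, read after 60 min. Excitation was 280 nm and emission 300–450 nm. The value is the lipid concentration giving 50% peptide binding, expressed as lipid per peptide.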

[7] = Tryptophan fluorescent binding assay, 3POPC/1POPG vesicles; details: 50 μM peptide, PBS pH 7.4
How it was run: as §1

[8] = ANTS/DPX liposome leakage assay, POPC vesicles; format: biochemical; details: 0.5 mM vesicles
How it was run: (§2)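 0.5 mM extruded 100 nm LUVs loaded with 5 mM ANTS/12.5 mM DPX were incubated 3 h with peptide at 0–20 μM in PBS pH 7.4 or HCl-adjusted PBS pH 4.8. Fluorescence read at ex 350/em 510 nm; 10% Triton set maximum leakage; values expressed as lipid per peptide.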

[9] = ANTS/DPX liposome leakage assay, 3POPC/1POPG vesicles; format: biochemical; details: 0.5 mM vesicles
How it was run: as §2

Row | Sequence | IC50 [1] | IC50 [2] | IC50 [3] | IC50 [4] | IC50 [5] | Lipid Concentration-induced 50% Peptide Binding (L/P) POPC Vesicle [6] | Lipid Concentration-induced 50% Peptide Binding (L/P) 3POPC/1POPG Vesicle [7] | Peptide Concentration-induced 50% ANTS/DPX leakage at pH 4.8 (L/P) POPC Vesicle [8] | Peptide Concentration-induced 50% ANTS/DPX leakage at pH 7.4 (L/P) POPC Vesicle [8] | Peptide Concentration-induced 50% ANTS/DPX leakage at pH 4.8 (L/P) 3POPC/1POPG Vesicle [9] | Peptide Concentration-induced 50% ANTS/DPX leakage at pH 7.4 (L/P) 3POPC/1POPG Vesicle [9]
1 | GLLELLKLLLHAAG [EKH] | 2.75 ± 0.07 µM | 2.18 ± 0.31 µM | 7.9 ± 0.42 µM | 23.8 ± 0.81 µM | 6.65 ± 1.34 µM | 0.75 L/P | 0.19 L/P | 55 L/P | 608 L/P | 88 L/P | 365 L/P
2 | GLLELLKLLLKAAG [EKK] | 1.72 ± 0.21 µM | 1.19 ± 0.4 µM | 1.7 ± 0.11 µM | 12.2 ± 1.84 µM | 3.35 ± 0.49 µM | 1.50 L/P | 0.63 L/P | 60 L/P | 1095 L/P | 219 L/P | 235 L/P
3 | GLLHLLELLLEAAG [HEE] | 6.5 ± 0.71 µM | 4.95 ± 0.49 µM | 58 ± 41 µM | 47.5 ± 11 µM | 10.2 ± 0.2 µM | 0.58 L/P | 0.50 L/P | 100 L/P | 876 L/P | 122 L/P | 792 L/P
4 | GLLHLLHLLLKAAG [HHK] | 3.15 ± 0.07 µM | 1.75 ± 0.21 µM | 5.6 ± 0.14 µM | 12.7 ± 1.91 µM | 5.25 ± 1.48 µM | 0.68 L/P | 0.20 L/P | 149 L/P | 1133 L/P | 111 L/P | 160 L/P
5 | GLLHLLKLLLEAAG [HKE] | 2.7 ± 0.28 µM | 1.9 ± 0.42 µM | 7.6 ± 0.42 µM | 16 ± 0.78 µM | 5.15 ± 0.64 µM | 0.75 L/P | 0.25 L/P | 173 L/P | 692 L/P | 94 L/P | 365 L/P
6 | GLLHLLKLLLHAAG [HKH] | 3.45 ± 0.21 µM | 3.1 ± 0.57 µM | 6.1 µM | 18.9 ± 1.24 µM | 5.7 ± 0.99 µM | 0.18 L/P | 0.38 L/P | 193 L/P | 1077 L/P | 47 L/P | 274 L/P

— patent publication US20230372433A1, “NANOPARTICLE FOR ANTI-CANCER PEPTIDES AND USES THEREOF” (KING'S COLLEGE LONDON, priority 2020, published 2023)
